From publication PMC8206213, “An L-2-hydroxyglutarate biosensor based on specific transcriptional regulator LhgR” (Nature Communications, 2021)
Where “and” joins values, the source holds several entries; their conditions need not be identical. Identical values can stand only once.

Experiments:
[1] = test system: LhgO; assay: Enzymatic assay of LhgO in crude extracts of P. putida KT2440 derivatives grown on different carbon sources (induction of lhgO under LhgR control); assay type: cell-based, Pseudomonas putida
Method: The cells were harvested at mid-log phase, washed twice and resuspended in phosphate-buffered saline (PBS), then lysed by sonication on ice after the addition of 1 mM phenylmethylsulfonyl fluoride (PMSF). […] Protein concentrations of the supernatants were determined using the Bradford protein assay kit (Sangon, China). […] The 800 μL reaction solution contained 0.1 mM […], 0.05 mM DCPIP, 0.2 mM phenazine methosulfate (PMS) in PBS and 40 μL crude extracts.

[2] = test system: LhgR; assay: EMSA, effect of compounds on LhgR binding to the lhgO promoter region F1; design: species or system Pseudomonas putida W619; conditions: 50 mM compound, 10 nM F1, 60 nM LhgR
Method: Electrophoretic mobility shift assays (EMSAs) were carried out using the DNA fragment (F1 or F2) and purified LhgR. The DNA fragments were first amplified by primer pairs F1-F/F1-R and F2-F/F2-R, respectively. Then, either fragment at a concentration of 10 nM DNA was incubated with LhgR (0–160 nM) in 20 μL EMSA binding buffer (10 mM Tris-HCl [pH 7.4], 50 mM KCl, 0.5 mM EDTA, 10% [vol/vol] glycerol, and 1 mM dithiothreitol [DTT]). The binding reactions were carried out at 30 °C for 30 min. Electrophoresis was performed on 6% native polyacrylamide gels at 4 °C and 170 V (constant voltage) for about 45 min, followed by staining with SYBR green I (TaKaRa, China) and photographing. Analysis of the interaction between lhgO promoter region (F1) and LHGFR was performed using the same procedure.
To characterize the effector of LhgR, purified LhgR was first incubated with L-lysine, 5-aminovalerate, glutarate, L-2-HG, D-2-HG, 2-KG, or succinate at 30 °C for 15 min, followed by incubation with the added DNA fragments at 30 °C for 30 min. The mixtures were subsequently subjected to electrophoresis.

[3] = test system: LHGFR0N3C; assay: Specificity of purified LHGFR0N3C, emission ratio with 240 μM compounds; assay type: binding, Pseudomonas putida W619; conditions: 240 μM compound
Method: (§1) Purified L-2-HG biosensors and different compounds were diluted by 50 mM Tris-HCl buffer (pH 7.4), mixed together in a black 96-well plate at a volume ratio of 3:1, and the fluorescence intensities were measured using an EnSight microplate reader (PerkinElmer, USA) with excitation at 430 nm, emission at 485 nm (mTFP) and 528 nm (Venus). […] The [L-2-HG], Kd, and p refer to the L-2-HG concentration, apparent dissociation constant, and Hill slope, respectively. Emission spectra were recorded at 430 nm excitation, in steps of 2 nm. Excitation spectra were recorded using emission at 550 nm, excitation from 380 to 535 nm in steps of 2 nm.

[4] = test system: LHGFR0N3C; assay: Influence of other compounds on the response of purified LHGFR0N3C to L-2-HG; assay type: binding, Pseudomonas putida W619
Method: as §1

[5] = test system: LHGFR0N3C expressed in E. coli BL21(DE3); assay: Specificity of LHGFR0N3C expressed in E. coli BL21(DE3), 1 mM compounds; assay type: cell-based; conditions: for Emission ratio: 1 mM compound, Fig. 5c
Method: (§2) To characterize the sensitivity and specificity of LHGFR expressed in E. coli BL21(DE3), 90 μL cell suspensions following 8 h carbon starvation were mixed with 10 μL increasing concentrations of L-2-HG or other compounds, and then added into a black 96-well plate (total 100 μL/per well), the fluorescence intensities were determined using an EnSight microplate reader (PerkinElmer, USA) and the following instrument settings: excitation at 430 nm, emission at 485 nm (mTFP) and 528 nm (Venus), time intervals of 5 min, the temperature at 37 °C, and shake at 180 rpm.

[6] = test system: LHGFR3N7C expressed in E. coli BL21(DE3); assay: Control biosensor LHGFR3N7C expressed in E. coli, response to added compounds; assay type: cell-based; conditions: Supplementary Fig. 14a
Method: as §2

[7] = test system: LHGFR0N3C expressed in HEK293FT cells; assay: Specificity of LHGFR0N3C expressed in permeabilized HEK293FT cells, 1 mM compounds; assay type: cell-based, human (HEK293FT cells); conditions: 1 mM compound, cells permeabilized with 10 μM digitonin, normalized to control
Method: To characterize the sensitivity and specificity of LHGFR expressed in HEK293FT cells, cells were trypsinized 48 h following transfection and suspended in 1× Hank’s balanced salt solution supplemented with 20 mM HEPES. […] Digitonin at a concentration of 10 μM was used to induce cell permeabilization and deplete intracellular L-2-HG for in vivo response curves construction. Then, the fluorescence intensities were determined by a SpectraMax i3 fluorescence plate reader (Molecular Devices, USA) with excitation at 430 nm and emission at 485 nm (mTFP) and 528 nm (Venus). Basal L-2-HG concentration in HEK293FT cells under physiological conditions was determined by substituting the emission ratios of non-permeabilized HEK293FT cells into the calibrated in vivo response curves.

O=C(O)CC[C@@H](O)C(=O)O [D-2-HG]
LhgO activity ([1]; crude extract of DcsiRDlhgO-pME6032 grown in MSM with the compound as sole carbon source): 7.06E-04 and 6.93E-04 and 7.09E-04
Induction of lhgO expression / effector molecule of LhgR ([1]; gene segment F2-lhgR-F1-lhgO in P. putida KT2440 derivatives): neither D-2-HG nor glutarate can serve as the effector molecule of LhgR
Effect on LhgR binding to the lhgO promoter region F1 [2]: observed only in the presence of L-2-HG
Emission ratio [3]: 1.4562 and 1.441 and 1.426
Influence on the response of LHGFR0N3C to L-2-HG ([4]; 240 μM D-2-HG, 1 mM 2-KG or 1 mM ATP for dose-response curves): could barely affect the response of LHGFR0N3C to L-2-HG
Emission ratio ([4]; Suppl. Fig. 9a, L-2-HG alone or with the compound, three replicates): 2.0547 and 2.056 and 2.045
Emission ratio ([5]; 0 min): 1.011 and 0.989 and 0.9926
Emission ratio ([5]; 5 min): 1.03 and 1.001 and 1.013
Emission ratio ([5]; 10 min): 1.043 and 1.03 and 1.027
Emission ratio ([5]; 15 min): 1.0445 and 1.033 and 1.032
Emission ratio ([5]; 20 min): 1.062 and 1.044 and 1.049
Emission ratio ([5]; 25 min): 1.051 and 1.047 and 1.058
Emission ratio ([5]; 30 min): 1.07 and 1.05 and 1.058
Emission ratio ([5]; 35 min): 1.071 and 1.055 and 1.07
Emission ratio ([5]; 40 min): 1.061 and 1.059 and 1.064
Emission ratio ([5]; 45 min): 1.071 and 1.057 and 1.074
Emission ratio ([5]; 50 min): 1.071 and 1.056 and 1.075
Emission ratio ([5]; 55 min): 1.074 and 1.067 and 1.073
Emission ratio ([5]; 60 min): 1.07 (2×) and 1.065
Emission ratio ([5]; 65 min): 1.082 (2×) and 1.064
Emission ratio ([5]; 70 min): 1.08 and 1.068 and 1.078
Emission ratio ([5]; 75 min): 1.08 and 1.07 and 1.0822
Emission ratio ([5]; 80 min): 1.068 and 1.078 and 1.077
Emission ratio ([5]; 85 min): 1.078 and 1.065 and 1.085
Emission ratio ([5]; 90 min): 1.07 and 1.071 and 1.074
Increase of the emission ratio in E. coli BL21(DE3) ([5]; 1 mM exogenous compound): could not
normalized emission ratio of control biosensor expressed in E. coli ([6]; time 0 min): 1.02 and 1.012 and 1.01 and 1.0239
normalized emission ratio of control biosensor expressed in E. coli ([6]; time 5 min): 1.007 and 1.013 and 1.012 and 1.022
normalized emission ratio of control biosensor expressed in E. coli ([6]; time 10 min): 1.011 and 1.012 (2×) and 1.02
normalized emission ratio of control biosensor expressed in E. coli ([6]; time 15 min): 1.008 and 1.007 and 1.013 and 1.022
normalized emission ratio of control biosensor expressed in E. coli ([6]; time 20 min): 1.004 and 1.013 and 1.022 and 1.028
normalized emission ratio of control biosensor expressed in E. coli ([6]; time 25 min): 1.0101 and 1.011 and 1.02 and 1.024
normalized emission ratio of control biosensor expressed in E. coli ([6]; time 30 min): 1.007 and 1.022 and 1.016 and 1.027
normalized emission ratio of control biosensor expressed in E. coli ([6]; time 35 min): 1.021 and 1.0176 and 1.025 and 1.027
normalized emission ratio of control biosensor expressed in E. coli ([6]; time 40 min): 1.019 (2×) and 1.013 and 1.028
normalized emission ratio of control biosensor expressed in E. coli ([6]; time 45 min): 1.015 and 1.017 and 1.0244 and 1.023
normalized emission ratio of control biosensor expressed in E. coli ([6]; time 50 min): 1.007 and 1.012 and 1.0275 and 1.019
normalized emission ratio of control biosensor expressed in E. coli ([6]; time 55 min): 1.011 (2×) and 1.037 and 1.027
normalized emission ratio of control biosensor expressed in E. coli ([6]; time 60 min): 1.016 and 1.014 and 1.0182 and 1.0226
normalized emission ratio of control biosensor expressed in E. coli ([6]; time 65 min): 1.014 and 1.022 and 1.029 and 1.023
normalized emission ratio of control biosensor expressed in E. coli ([6]; time 70 min): 1.021 and 1.015 and 1.038 and 1.03
normalized emission ratio of control biosensor expressed in E. coli ([6]; time 75 min): 1.0229 and 1.021 and 1.034 and 1.027
normalized emission ratio of control biosensor expressed in E. coli ([6]; time 80 min): 1.027 and 1.023 and 1.038 (2×)
normalized emission ratio of control biosensor expressed in E. coli ([6]; time 85 min): 1.021 and 1.027 and 1.032 and 1.0274
normalized emission ratio of control biosensor expressed in E. coli ([6]; time 90 min): 1.0277 and 1.033 and 1.04 and 1.032
Normalized emission ratio [7]: 1.056 and 1.057 and 1.069
